Results published in US8455649B2, “Insecticidal substituted azinyl derivatives” (Dow AgroSciences, LLC, priority 2007, dated 2013).

Legend:
[1] = system: Corn Earworm (Helicoverpa zea); assay: Insecticidal diet-surface test for corn earworm; type: in vivo; settings: 120 h, second-instar larvae on treated diet, 50 μg/cm^2 on diet surface, 5 days after treatment, 8 insects per treatment, read-out: HELIZE AVG % Mortality (50 μg/cm^2)
Procedure: (§1) The compounds identified in Table 1 were tested against beet armyworm and corn earworm as follows:
(§2) Insecticidal Test for Corn Earworm (Helicoverpa zea) and Beet Armyworm (Spodoptera exigua).
(§3) To prepare test solution, the test compound was formulated at 2000 ppm solution as 4 mg/2 mL of 9 acetone:1 tap water. 50 μL of the 2000 ppm (equivalent to 50 μg/cm^2 dose on diet surface area) test solution was pipetted upon the surface of 1 mL of lepidopteran diet (Southland Multi-Species Lepidopteran Diet) contained in each of eight wells per insect species (one well=1 replication). A second-instar corn earworm and beet armyworm was placed upon the treated diet in each well once the solvent had air-dried. Trays containing the treated diet and larvae were covered and then held in a growth chamber at 25° C., 50-55% RH, and 16 hr light:8 hr dark for 5 days. Observation were conducted 5 days after treatment and infestation. The number of dead insects of 8 per species per treatment was then determined and the results are given in Table 2 as a percent control at a dose of […].

[2] = system: Beet Armyworm (Spodoptera exigua); assay: Insecticidal diet-surface test for beet armyworm; type: in vivo; settings: 120 h, second-instar larvae on treated diet, 50 μg/cm^2 on diet surface, 5 days after treatment, 8 insects per treatment, read-out: LAPHEG AVG % Mortality (50 μg/cm^2)
Procedure: as §1, §2, §3

| Compound | mortality at 50 µg/cm2 [1] [%] | mortality at 50 µg/cm2 [2] [%] |
| --- | --- | --- |
| O=C(Nc1ccc(Br)cc1)Nc1nc(OCC(F)(F)F)cc(OCC(F)(F)F)n1 [Compound 22] | 100 | 100 |
| O=C(Nc1ccc(C(F)(F)F)cc1)Nc1nc(OCC(F)(F)F)cc(SCC(F)(F)F)n1 [Compound 6] | 63 | 0 |
| O=C(Nc1ccc(C(F)(F)F)nc1)N(COCc1ccccc1)c1nc(OCC(F)(F)F)cc(OCC(F)(F)F)n1 [Compound 87] | 100 | 100 |
| CN(C(=O)Nc1nc(OCC(F)(F)F)cc(OCC(F)(F)F)n1)c1ccc(Br)cn1 [Compound 123] | 100 | 100 |
| COCN(C(=O)N(COCc1ccccc1)c1nc(OCC(F)(F)F)cc(OCC(F)(F)F)n1)c1ccc(C(F)(F)F)cc1 [Compound 37] | 100 | 100 |
| CON(C(=O)Nc1nc(OCC(F)(F)F)cc(OCC(F)(F)F)n1)c1ccc(Cl)cc1 [Compound 65, N′-[4,6-bis(2,2,2-trifluoroethoxy)pyrimidin-2-yl]-N-(4-chlorophenyl)-N-methoxyurea] | 100 | 100 |
| CCOCN(C(=O)N(COCc1ccccc1)c1nc(OCC(F)(F)F)cc(OCC(F)(F)F)n1)c1ccc(Br)cc1 [Compound 67] | 100 | 100 |
| CN(C(=O)N(C)c1nc(OCC(F)(F)F)cc(OCC(F)(F)F)n1)c1ccc(OC(F)(F)F)cc1 [Compound 11, N-[4,6-bis(2,2,2-trifluoroethoxy)pyrimidin-2-yl]-N,N′-dimethyl-N-[4-(trifluoromethoxy)phenyl]urea] | 100 | 100 |
| FC(F)(F)COc1cc(OCC(F)(F)F)nc(NC(=S)Nc2ccc(C(F)(F)F)cc2)n1 [Compound 130] | 100 | 100 |
| COCN(C(=O)N(COCc1ccccc1)c1nc(OCC(F)(F)F)cc(OCC(F)(F)F)n1)c1ccc(Br)cc1 [Compound 68] | 100 | 100 |
| Cc1c(OCC(F)(F)F)nc(NC(=O)N(C)c2ccc(Br)cc2)nc1OCC(F)(F)F [Compound 140] | 100 | 100 |
| CC(C)OCN(C(=O)N(COCc1ccccc1)c1nc(OCC(F)(F)F)cc(OCC(F)(F)F)n1)c1ccc(Br)cc1 [Compound 66] | 100 | 100 |
| COCCN(C(=O)Nc1nc(OCC(F)(F)F)cc(OCC(F)(F)F)n1)c1ccc(OC(F)(F)F)cc1 [Compound 50] | 100 | 100 |
| CN(C)CCN(C(=O)Nc1nc(OCC(F)(F)F)cc(OCC(F)(F)F)n1)c1ccc(OC(F)(F)F)cc1 [Compound 70] | 100 | 100 |
| CN(C(=O)Nc1nc(OCC(F)(F)F)cc(OCC(F)(F)F)n1)c1ccc(Cl)cc1 [Compound 21] | 100 | 100 |
| CN(C(=O)N(C)c1nc(OCC(F)(F)F)cc(OCC(F)(F)F)n1)c1ccc(C(F)(F)F)cc1 [Compound 12] | 100 | 100 |
| O=C(Nc1ccc(OCC(F)F)cc1)Nc1nc(OCC(F)(F)F)cc(OCC(F)(F)F)n1 [Compound 15] | 50 | 75 |
| O=C(Nc1ccc(OC(F)(F)F)cc1)Nc1nc(OCC(F)(F)F)c(Cl)c(OCC(F)(F)F)n1 [Compound 136] | 100 | 100 |
| CN(C(=O)Nc1nc(OCC(F)(F)F)nc(OCC(F)(F)F)n1)c1ccc(C(F)(F)F)cc1 [Compound 118, N′-[4,6-bis(2,2,2-trifluoroethoxy)-1,3,5-triazin-2-yl]-N-(4-trifluoromethylphenyl)-N-methylurea] | 100 | 100 |
| COCCOCN(C(=O)N(COCc1ccccc1)c1nc(OCC(F)(F)F)cc(OCC(F)(F)F)n1)c1ccc(C(F)(F)F)cc1 [Compound 52] | 100 | 100 |
| CC(=O)OCN(C(=O)Nc1nc(OCC(F)(F)F)cc(OCC(F)(F)F)n1)c1ccc(C(F)(F)F)cc1 [Compound 38] | 100 | 100 |
| CN(C(=O)Nc1nc(OCC(F)(F)F)cc(OCC(F)(F)F)n1)c1ccc(Br)nc1 [Compound 42] | 100 | 100 |
| COCN(C(=O)N(COCc1ccccc1)c1nc(OCC(F)(F)F)cc(OCC(F)(F)F)n1)c1ccc(C(F)(F)F)nc1 [Compound 89] | 100 | 100 |
| O=C(Nc1ccc(C(F)(F)F)cc1)N(COCc1ccccc1)c1nc(OCC(F)(F)F)cc(OCC(F)(F)F)n1 [Compound 19, N-Benzyloxymethyl-N-[4,6-bis-(2,2,2-trifluoroethoxy)pyrimidin-2-yl]-N′-[(4-trifluoromethyl)phenyl]urea] | 100 | 100 |

| Compound | mortality at 50 µg/cm2 [1] [%] | mortality at 50 µg/cm2 [2] [%] |
| --- | --- | --- |
| CN(C(=O)Nc1cc(OCC(F)(F)F)nc(OCC(F)(F)F)n1)c1ccc(OC(F)(F)F)cc1 [Compound 106] | 100 | 100 |
| CC1(COc2cc(OCC(F)(F)F)nc(NC(=O)Nc3ccc(C(F)(F)F)cc3)n2)CC1(Cl)Cl (stereo not drawn) [Compound 101] | 100 | 100 |
| O=C(Nc1cc(F)c(C(F)(F)F)c(F)c1)Nc1nc(OCC(F)(F)F)cc(OCC(F)(F)F)n1 [Compound 76] | 100 | 100 |
| O=C(Nc1nc(OCC(F)(F)F)cc(OCC(F)(F)F)n1)N(c1ccc(OC(F)(F)F)cc1)C(F)(F)F [Compound 93] | 100 | 100 |
| COC(=O)CN(C(=O)Nc1nc(OCC(F)(F)F)cc(OCC(F)(F)F)n1)c1ccc(OC(F)(F)F)cc1 [Compound 28] | 100 | 100 |
| CCOCN(C(=O)Nc1ccc(C(F)(F)F)cc1)c1nc(OCC(F)(F)F)cc(OCC(F)(F)F)n1 [Compound 18] | 100 | 100 |
| CN(C(=O)Nc1nc(OCC(F)(F)F)cc(OCC(F)(F)F)n1)c1ccc(C(F)(F)F)cn1 [Compound 122] | 88 | 100 |
| COCN(C(=O)Nc1nc(OCC(F)(F)F)cc(OCC(F)(F)F)n1)c1ccc(C(F)(F)F)nc1 [Compound 91] | 100 | 100 |
| O=C(Nc1ccc(Cl)cc1)Nc1nc(OCC(F)(F)F)cc(OCC(F)(F)F)n1 [Compound 20] | 100 | 100 |
| CSc1ccc(NC(=O)Nc2nc(OCC(F)(F)F)cc(OCC(F)(F)F)n2)cc1 [Compound 57] | 100 | 0 |
| COCN(C(=O)Nc1nc(OCC(F)(F)F)cc(OCC(F)(F)F)n1)c1ccc(C(F)(F)F)cc1 [Compound 39] | 100 | 100 |
| CC(C)N(C(=O)Nc1nc(OCC(F)(F)F)cc(OCC(F)(F)F)n1)c1ccc(OC(F)(F)F)cc1 [Compound 69] | 100 | 100 |
| CCc1cc(Br)ccc1N(C)C(=O)Nc1nc(OCC(F)(F)F)cc(OCC(F)(F)F)n1 [Compound 157] | 100 | 100 |
| O=C(Nc1ccc(C(F)(F)F)cc1)Nc1nc(OCC(F)(F)F)cc(C(F)(F)F)n1 [Compound 102, N-(4-trifluoromethylphenyl)-N′-[4-trifluoromethyl-6-(2,2,2-trifluoroethoxy)pyrimidin-2-yl]urea] | 100 | 0 |
| CCNCCNc1cc(OCC(F)(F)F)nc(NC(=O)Nc2ccc(C(F)(F)F)cc2)n1 [Compound 98] | 100 | 100 |
| CN(C(=O)Nc1cc(OCC(F)(F)F)nc(OCC(F)(F)F)n1)c1ccc(Cl)cc1 [Compound 112] | 100 | 50 |
| O=C(Nc1ccc(Br)c(F)c1)Nc1nc(OCC(F)(F)F)cc(OCC(F)(F)F)n1 [Compound 72] | 100 | 0 |
| CN(C(=S)Nc1nc(OCC(F)(F)F)cc(OCC(F)(F)F)n1)c1ccc(C(F)(F)F)nc1 [Compound 133] | 100 | 100 |
| CN(C(=O)Nc1nc(OCC(F)(F)F)cc(OCC(F)(F)F)n1)c1ccc(S(=O)(=O)C(F)(F)F)cc1 [Compound 94] | 100 | 100 |
| Cc1c(OCC(F)(F)F)nc(NC(=O)Nc2ccc(C(F)(F)F)nc2)nc1OCC(F)(F)F [Compound 143] | 100 | 100 |
| CCCN(C(=O)Nc1nc(OCC(F)(F)F)cc(OCC(F)(F)F)n1)c1ccc(OC(F)(F)F)cc1 [Compound 26] | 100 | 100 |
| CN(C(=O)Nc1cc(C(F)(F)F)cc(OCC(F)(F)F)n1)c1ccc(OC(F)(F)F)cc1 [Compound 168] | 100 | 100 |
| O=C(Nc1ccc(C(F)(F)F)cc1)Nc1nc(Cl)cc(OCC(F)(F)F)n1 [Compound 97] | 100 | 100 |
| CCOCN(C(=O)Nc1nc(OCC(F)(F)F)cc(OCC(F)(F)F)n1)c1ccc(OC(F)(F)F)cc1 [Compound 44] | 100 | 100 |
